Test results published in patent EP1379634B1 (THE UNIVERSITY OF GEORGIA RESEARCH FOUNDATION, INC., priority 2001, dated 2002).
Residues, ends and D or L forms follow the SMILES beside them. *: point of attachment. Cbz = O=C(OCc1ccccc1)*; CH2F = FC*

Assays:
[1] = system: normal BALB/c mouse splenocytes; assay: Splenocyte proliferation (3H-thymidine incorporation) with or without Con-A; assay type: cell-based
Cathepsin B = Cathepsin B (Homo sapiens, UniProt P07858); assay: Selectivity test (Steps VI and IX), Cathepsin B; assay type: biochemical; conditions: vehicle 4 X 10^-5 M; pH 6.1, substrate Z-ARR-AFC; 40 µM
Description: In order to perform the assay, the vehicle (for Step VI) or inhibitor (for Step IX) were incubated with the appropriate substrate in the correct assay buffer and allowed to equilibrate. Subsequently, the protease was added, and the assay was allowed to incubate for an appropriate time. The concentrations used in this experiment were as follows: Vehicle was set up at 4 X 10^-5 M in final assay buffer; Inhibitor was set up at 3 X 10^-10 M in the final assay buffer. Preferably the dosages employed should be the minimal amount of vehicle or inhibitor necessary to induce inhibition. […] Substrates were set up based upon the preferred substrate for cleavage of the particular enzyme.
Positive controls were set up similarly as described for test controls, except that a solvent blank was added in substitution for the inhibitor or vehicle (in a volume equal to the volume of inhibitor or vehicle addition). All of the inhibitors and vehicles could be dissolved in dimethylsulfoxide (DMSO), and therefore, this was the solvent of choice. Negative controls were set up by adding the inhibitor or vehicle and the preferred substrates in a tube without the protease. […]
Percent inhibition was calculated as: %Inhibition = ((AFC positive for "SI"−AFC negative for "SI")−(AFC test−AFC negative for "SI"))/(AFC positive for "SI"−AFC negative for "SI") × 100 [formula] […]

Compound	proliferative response (3H-thymidine incorporation) ([1]; inhibitor alone)	toxicity to splenocytes in vitro ([1]; preliminary results)	% inhibition (Cathepsin B) [%]
CC(C)C[C@H](NC(=O)OCc1ccccc1)C(=O)N[C@@H](CC(C)C)C(=O)N[C@@H](Cc1ccc(O)cc1)C(=O)CF [Z-LLY-FMK, Z-Leu-Leu-Tyr-FMK] (Cbz-Leu-Leu-Tyr-CH2F)	do not induce a proliferative response	nontoxic	–
Mu-Leu-Tyr-AFC [Mu-LY-AFC]	–	–	0
